Data from patent US10682319B2, “Necrosis inhibitors” (National Institute of Biological Sciences, Beijing, priority 2014, dated 2020).
Like-named read-outs stand apart in the source and are kept apart here.

Tested on: HT-29 cells
Experiment: Necrosis assay (TNF-α/Smac mimetic/z-VAD induced necrosis, cell viability by ATP level)
Format: cell-based
Conditions: HT-29, TNF-α + Smac mimetic + z-VAD, 24 hrs, ATP level, read-out: EC50 (inhibition of necrosis in HT-29 cells)
Description: HT-29 cells were cultured in McCoy's 5 A culture medium (Invitrogen). On day one, HT-29 cells were plated in 96-well assay plates at density of 2,500-3,500 cells per well. On day two, necrosis were induced by adding 20 ng/ml TNF-α (T), 100 nM Smac mimetic (S), and […] z-VAD (Z). At the same time, […] compound from a chemical library of ˜200,000 compounds was delivered into each well. After 24 hrs treatment, cell viability was determined by measuring ATP level using the CellTiter-Glo Luminescent Cell Viability Assay kit. A CellTiter-Glo Assay (Promega) was performed according to the manufacturer's instructions Luminescence was recorded with a PerkinElmer EnSpire Multimode Plate Reader. Survived cells were normalized to those cells treated with DMSO. Nec-1 was used as a positive control for screening necrosis inhibitors. Data are represented as mean±standard deviation of duplicates
Dose-dependent inhibition of necrosis by the compounds in HT-29 cells were determined by measuring ATP levels as described above.

[1] = Homo sapiens, HT-29, 24 h, values given as ranges in uM

Structure (SMILES)	EC50 [1] [µM]	EC50 (values given as ranges in nM) [µM]
CCC(C)(C)C(=O)N[C@@H](C(=O)NCCOc1ccccc1)c1ccccc1 [Compound 127, (R)-2,2-dimethyl-N-(2-oxo-2-((2-phenoxyethyl)amino)-1-phenylethyl)butanamide]	1 to 100	–
CCC(C)(C)C(=O)N(CCCOC)Cc1cccc(F)c1 [Compound 63, N-(3-fluorobenzyl)-N-(3-methoxypropyl)-2,2-dimethylbutanamide]	1 to 100	–
CN(Cc1cc(F)c(F)c(F)c1)C(=O)C1CCCC1 [Compound 85, N-methyl-N-(3,4,5-trifluorobenzyl)cyclopentanecarboxamide]	1 to 100	–
CC(C)N(C)C(=O)N(C)Cc1cc(F)cc(F)c1F [Compound 120, isopropyl-1,3-dimethyl-3-(2,3,5-trifluorobenzyl)urea]	1 to 10	–
COC(C)(C)C(=O)N(C)Cc1cc(F)cc(F)c1F [Compound 67, 2-methoxy-N,2-dimethyl-N-(2,3,5-trifluorobenzyl)propanamide]	1 to 10	–
C#CCN(Cc1ccccc1F)C(=O)C(C)(C)CC [Compound 11, N-(2-fluorobenzyl)-2,2-dimethyl-N-(prop-2-yn-1-yl)butanamide]	1 to 10	–
CC(F)(F)C(C)(C)C(=O)N(O)Cc1cc(F)c(F)c(F)c1 [Compound S13]	1 to 100	–
CN(Cc1cc(F)c(F)c(F)c1)C(=O)C(C)(C)C [Compound 69, N-methyl-N-(3,4,5-trifluorobenzyl)pivalamide]	1 to 10	–
CN(Cc1cc(F)cc(F)c1F)C(=O)C(C)(C)C [Compound S2, N-methyl-N-(2,3,5-trifluorobenzyl)pivalamide]	–	0.001 to 1
CCC(C)(C)C(=O)N(C)Cc1ccc(F)cc1 [Compound S7, N-(4-fluorobenzyl)-N,2,2-trimethylbutanamide]	1 to 10	–
CC1CCCCN1C(=O)N(C)Cc1cc(F)cc(F)c1F (stereo not shown) [Compound 117, N,2-dimethyl-N-(2,3,5-trifluorobenzyl)piperidine-1-carboxamide]	1 to 10	–
CCC(C)(C)C(=O)N(Cc1cc(F)cc(F)c1F)OC [Compound 135]	1 to 100	–
CCC(C)(C)C(=O)N(C)Cc1cc(F)cc(F)c1 [Compound 26, N-(3,5-difluorobenzyl)-N,2,2-trimethylbutanamide]	–	0.001 to 1
CON(Cc1ccc(F)cc1F)C(=O)C(C)(C)C(C)(F)F [Compound S16]	1 to 100	–
CCC(C)(C)C(=O)N(C)Cc1cc(F)ccc1F [Compound 25, N-(2,5-difluorobenzyl)-N,2,2-trimethylbutanamide]	–	0.001 to 1
CCC(C)(C)C(=O)N(C)Cc1cccc(Br)c1 [Compound 19, N-(3-bromobenzyl)-N,2,2-trimethylbutanamide]	1 to 10	–
CCC(C)(C)C(=O)N(Cc1ccc(F)cc1F)OC [Compound 131]	1 to 100	–
CC(F)(F)C(C)(C)C(=O)N(O)Cc1cc(F)cc(F)c1F [Compound S14]	1 to 100	–
CN(Cc1cc(F)cc(F)c1F)C(=O)C1(C(F)(F)F)CCCC1 [Compound 86, N-methyl-N-(2,3,5-trifluorobenzyl)-1-(trifluoromethyl)cyclopentanecarboxamide]	1 to 100	–
CCC(C)(C)C(=O)N(C)Cc1cc(F)ccc1C#N [Compound 57, N-(2-cyano-5-fluorobenzyl)-N,2,2-trimethylbutanamide]	1 to 10	–
CCC(C)(C)C(=O)N(C)Cc1ccn(C)n1 [Compound 45, N,2,2-trimethyl-N-((1-methyl-1H-pyrazol-3-yl)methyl)butanamide]	1 to 100	–
C=CC(C)(C)C(=O)N(O)Cc1sc(C)cc1C [Compound 146]	1 to 100	–
CCC(C)(C)C(=O)N(O)Cc1sc(C)cc1C [Compound 138]	1 to 100	–

Structure (SMILES)	EC50 [1] [µM]	EC50 (values given as ranges in nM) [µM]
CCC(C)(C)C(=O)N(Cc1cc(F)c(F)c(F)c1)OC [Compound 134]	1 to 100	–
CCC(C)(C)C(=O)N(C)Cc1ccncc1F [Compound 36, N-((3-fluoropyridin-4-yl)methyl)-N,2,2-trimethylbutanamide]	1 to 100	–
CN(Cc1ccccc1F)C(=O)NC1CCCCC1 [Compound 113, 3-cyclohexyl-1-(2-fluorobenzyl)-1-methylurea]	1 to 100	–
CCC1(C(=O)N(C)Cc2cc(F)c(F)c(F)c2)CCCC1 [Compound 89, 1-ethyl-N-methyl-N-(3,4,5-trifluorobenzyl)cyclopentanecarboxamide]	1 to 10	–
CCC(C)(C)C(=O)NC1(c2ccccc2)CC1 [Compound 54, 2,2-dimethyl-N-(1-phenylcyclopropyl)butanamide]	1 to 100	–
CCC(C)(C)C(=O)N(Cc1ccccc1)OC(C)=O [Compound S3, N-acetoxy-N-benzyl-2,2-dimethylbutanamide]	–	0.001 to 1
CCC1CCCCN1C(=O)N(C)Cc1cc(F)cc(F)c1F (stereo not shown) [Compound 116, 2-ethyl-N-methyl-N-(2,3,5-trifluorobenzyl)piperidine-1-carboxamide]	1 to 100	–
CCC(C)(C)C(=O)N(C)Cc1ccc2ccccc2c1 [Compound 46, N,2,2-trimethyl-N-(naphthalen-2-ylmethyl)butanamide]	1 to 100	–
CCC(C)(C)C(=O)N[C@@H](CC(=O)NCCOCCOC)c1ccccc1 [Compound 102, (S)—N-(3-((2-(2-methoxyethoxy)ethyl)amino)-3-oxo-1-phenylpropyl)-2,2-dimethylbutanamide]	1 to 100	–
CCC(C)(C)C(=O)N(C)Cc1cc(F)ccc1Br [Compound 56, N-(2-bromo-5-fluorobenzyl)-N,2,2-trimethylbutanamide]	1 to 10	–
CN(Cc1cc(F)cc(F)c1F)[S+]([O-])C(C)(C)C (stereo not shown) [Compound 78, N,2-dimethyl-N-(2,3,5-trifluorobenzyl)propane-2-sulfinamide]	1 to 100	–
CCC(C)(C)C(=O)N(CCC(C)=O)Cc1ccccc1F [Compound 12, N-(2-fluorobenzyl)-2,2-dimethyl-N-(3-oxobutyl)butanamide]	1 to 10	–
CCC(C)(C)C(=O)N(C)Cc1ccco1 [Compound 43, N-(furan-2-ylmethyl)-N,2,2-trimethylbutanamide]	–	0.001 to 1
CC(F)(F)C(C)(C)C(=O)N(O)Cc1cc(F)c(F)cc1F [Compound S12]	1 to 100	–
CN(Cc1ccccc1F)C(=O)C1CCCCC1 [Compound 60, N-(2-fluorobenzyl)-N-methylcyclohexanecarboxamide]	1 to 10	–
CCC(C)(C)C(=O)N(C)Cc1c(F)ccc(C)c1F [Compound 50, N-(2,6-difluoro-3-methylbenzyl)-N,2,2-trimethylbutanamide]	1 to 10	–
CCC(C)(C)C(=O)N(Cc1ccc(F)c(F)c1)OC [Compound 132]	1 to 100	–
CCC(C)(C)C(=O)N(C)Cc1cccc(Cl)c1 [Compound 18, N-(3-chlorobenzyl)-N,2,2-trimethylbutanamide]	–	0.001 to 1
CON(Cc1cc(F)cc(F)c1F)C(=O)C(C)(C)C(C)(F)F [Compound S20]	1 to 100	–
CCC(C)(C)C(=O)N(C)Cc1ccccc1OC [Compound 15, N-(2-methoxybenzyl)-N,2,2-trimethylbutanamide]	1 to 100	–
CCC(C)(C)C(=O)NCc1cc(F)cc(F)c1F [Compound 70, 2,2-dimethyl-N-(2,3,5-trifluorobenzyl)butanamide]	–	0.001 to 1
CCC(C)(C)C(=O)N(O)Cc1cccs1 [Compound 136]	1 to 100	–
CCC(C)(C)C(=O)N[C@@H](CC(=O)NCCOc1ccccc1)c1ccccc1 [Compound 126, (S)-2,2-dimethyl-N-(3-oxo-3-((2-phenoxyethyl)amino)-1-phenylpropyl)butanamide]	1 to 100	–
